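These data come from cells grown in 96-well plates and exposed to compound for 48 hours at five concentrations. TGI denotes the concentration required for complete inhibition of growth.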
How the values were obtained:
Test in all cases: growth of human tumour cells (NCI), 48 h
HCT-15 colon = tested on: HCT-15 colon
LXFL 529 NSCLC = tested on: LXFL 529 NSCLC
SF-268 CNS = tested on: SF-268 CNS
TK-10 renal = tested on: TK-10 renal
HOP-18 NSCLC = tested on: HOP-18 NSCLC
OVCAR-3 ovarian = tested on: OVCAR-3 ovarian
EKVX NSCLC = tested on: EKVX NSCLC
COLO 205 colon = tested on: COLO 205 colon
HOP-92 NSCLC = tested on: HOP-92 NSCLC
HCC-2998 colon = tested on: HCC-2998 colon
OVCAR-5 ovarian = tested on: OVCAR-5 ovarian
DMS 114 small cell lung = tested on: DMS 114 small cell lung
SNB-78 CNS = tested on: SNB-78 CNS
SF-539 CNS = tested on: SF-539 CNS
IGROV1 ovarian = tested on: IGROV1 ovarian
NCI-H226 lung = tested on: NCI-H226 lung
HT29 colon = tested on: HT29 colon
CCRF-CEM leukemia = tested on: CCRF-CEM leukemia
UACC-62 melanoma = tested on: UACC-62 melanoma
CAKI-1 renal = tested on: CAKI-1 renal
KM12 colon = tested on: KM12 colon
SNB-19 CNS = tested on: SNB-19 CNS
UO-31 renal = tested on: UO-31 renal
M14 melanoma = tested on: M14 melanoma
OVCAR-4 ovarian = tested on: OVCAR-4 ovarian
NCI-H460 lung = tested on: NCI-H460 lung
HL-60(TB) leukemia = tested on: HL-60(TB) leukemia
786-0 renal = tested on: 786-0 renal
SK-MEL-5 melanoma = tested on: SK-MEL-5 melanoma
NCI-H522 lung = tested on: NCI-H522 lung
A498 renal = tested on: A498 renal
KM20L2 colon = tested on: KM20L2 colon
SK-MEL-28 melanoma = tested on: SK-MEL-28 melanoma
NCI-H23 lung = tested on: NCI-H23 lung
M19-MEL melanoma = tested on: M19-MEL melanoma
OVCAR-8 ovarian = tested on: OVCAR-8 ovarian
SW-620 colon = tested on: SW-620 colon
RPMI-8226 leukemia = tested on: RPMI-8226 leukemia
MOLT-4 leukemia = tested on: MOLT-4 leukemia
MALME-3M melanoma = tested on: MALME-3M melanoma
SNB-75 CNS = tested on: SNB-75 CNS
ACHN renal = tested on: ACHN renal
RXF-631 renal = tested on: RXF-631 renal
UACC-257 melanoma = tested on: UACC-257 melanoma
U251 CNS = tested on: U251 CNS
A549 NSCLC = tested on: A549 NSCLC
HOP-62 NSCLC = tested on: HOP-62 NSCLC
K-562 leukemia = tested on: K-562 leukemia
SN12C renal = tested on: SN12C renal
SF-295 CNS = tested on: SF-295 CNS
DLD-1 colon = tested on: DLD-1 colon
SK-OV-3 ovarian = tested on: SK-OV-3 ovarian
HCT-116 colon = tested on: HCT-116 colon
DMS 273 small cell lung = tested on: DMS 273 small cell lung
SK-MEL-2 melanoma = tested on: SK-MEL-2 melanoma
XF 498 CNS = tested on: XF 498 CNS
LOX IMVI melanoma = tested on: LOX IMVI melanoma

In the case of `Clc1ccc(OC2CCO2)cc1Cl` (configuration not stated), the TGI (HCT-15 colon) is reported as 36.8 µM, the TGI (LXFL 529 NSCLC) is reported as > 100 µM and the TGI (SF-268 CNS) is reported as > 100 µM. For the same compound, the TGI (TK-10 renal) was > 100 µM, the TGI (HOP-18 NSCLC) was > 100 µM and the TGI (OVCAR-3 ovarian) was > 100 µM. For the same compound, the TGI (EKVX NSCLC) was > 100 µM, the TGI (COLO 205 colon) was > 100 µM and the TGI (HOP-92 NSCLC) was > 100 µM. For the same compound, the TGI (HCC-2998 colon) was > 100 µM, the TGI (OVCAR-5 ovarian) was > 100 µM and the TGI (DMS 114 small cell lung) was > 100 µM. The TGI (SNB-78 CNS) was > 100 µM, the TGI (SF-539 CNS) was > 100 µM and the TGI (IGROV1 ovarian) was > 100 µM. For the same compound, the TGI (NCI-H226 lung) was > 100 µM, the TGI (HT29 colon) was > 100 µM and the TGI (CCRF-CEM leukemia) was > 100 µM. For the same compound, the TGI (UACC-62 melanoma) was > 100 µM, the TGI (CAKI-1 renal) was > 100 µM and the TGI (KM12 colon) was > 100 µM. The TGI (SNB-19 CNS) was > 100 µM, the TGI (UO-31 renal) was > 100 µM and the TGI (M14 melanoma) was > 100 µM. The TGI (OVCAR-4 ovarian) was > 100 µM, the TGI (NCI-H460 lung) was > 100 µM and the TGI (HL-60(TB) leukemia) was > 100 µM. The TGI (786-0 renal) was > 100 µM, the TGI (SK-MEL-5 melanoma) was > 100 µM and the TGI (NCI-H522 lung) was > 100 µM. For the same compound, the TGI (A498 renal) was > 100 µM, the TGI (KM20L2 colon) was > 100 µM and the TGI (SK-MEL-28 melanoma) was > 100 µM. For the same compound, the TGI (NCI-H23 lung) was > 100 µM, the TGI (M19-MEL melanoma) was > 100 µM and the TGI (OVCAR-8 ovarian) was > 100 µM. The TGI (SW-620 colon) was 33.6 µM, the TGI (RPMI-8226 leukemia) was > 100 µM and the TGI (MOLT-4 leukemia) was > 100 µM. The TGI (MALME-3M melanoma) was > 100 µM, the TGI (SNB-75 CNS) was > 100 µM and the TGI (ACHN renal) was > 100 µM. The TGI (RXF-631 renal) was > 100 µM, the TGI (UACC-257 melanoma) was > 100 µM and the TGI (U251 CNS) was > 100 µM. For the same compound, the TGI (A549 NSCLC) was > 100 µM, the TGI (HOP-62 NSCLC) was > 100 µM and the TGI (K-562 leukemia) was > 100 µM. The TGI (SN12C renal) was > 100 µM, the TGI (SF-295 CNS) was > 100 µM and the TGI (DLD-1 colon) was > 100 µM. For the same compound, the TGI (SK-OV-3 ovarian) was > 100 µM, the TGI (HCT-116 colon) was > 100 µM and the TGI (DMS 273 small cell lung) was > 100 µM.
In the case of `CC1(C)CCc2cc3c(-c4ccccc4)cc(=O)oc3cc2O1`, the TGI (HCT-15 colon) is reported as > 100 µM, the TGI (LXFL 529 NSCLC) is reported as > 100 µM and the TGI (SF-268 CNS) is reported as > 100 µM. The TGI (TK-10 renal) was > 100 µM, the TGI (HOP-18 NSCLC) was > 100 µM and the TGI (OVCAR-3 ovarian) was > 100 µM. For the same compound, the TGI (EKVX NSCLC) was > 100 µM, the TGI (COLO 205 colon) was > 100 µM and the TGI (HOP-92 NSCLC) was 72.3 µM. For the same compound, the TGI (DMS 114 small cell lung) was > 100 µM, the TGI (SNB-78 CNS) was > 100 µM and the TGI (SF-539 CNS) was > 100 µM. For the same compound, the TGI (IGROV1 ovarian) was > 100 µM, the TGI (NCI-H226 lung) was > 100 µM and the TGI (HT29 colon) was > 100 µM. The TGI (CCRF-CEM leukemia) was > 100 µM, the TGI (SK-MEL-2 melanoma) was > 100 µM and the TGI (UACC-62 melanoma) was > 100 µM. The TGI (XF 498 CNS) was > 100 µM, the TGI (CAKI-1 renal) was > 100 µM and the TGI (SNB-19 CNS) was > 100 µM. For the same compound, the TGI (UO-31 renal) was > 100 µM, the TGI (M14 melanoma) was > 100 µM and the TGI (NCI-H460 lung) was > 100 µM. The TGI (HL-60(TB) leukemia) was > 100 µM, the TGI (SK-MEL-5 melanoma) was > 100 µM and the TGI (NCI-H522 lung) was > 100 µM. The TGI (A498 renal) was > 100 µM, the TGI (KM20L2 colon) was > 100 µM and the TGI (SK-MEL-28 melanoma) was > 100 µM. The TGI (NCI-H23 lung) was > 100 µM, the TGI (M19-MEL melanoma) was > 100 µM and the TGI (OVCAR-8 ovarian) was > 100 µM. The TGI (SW-620 colon) was > 100 µM, the TGI (LOX IMVI melanoma) was > 100 µM and the TGI (RPMI-8226 leukemia) was > 100 µM. The TGI (MOLT-4 leukemia) was > 100 µM, the TGI (MALME-3M melanoma) was > 100 µM and the TGI (SNB-75 CNS) was 71.5 µM. For the same compound, the TGI (ACHN renal) was > 100 µM, the TGI (RXF-631 renal) was > 100 µM and the TGI (U251 CNS) was > 100 µM. For the same compound, the TGI (K-562 leukemia) was > 100 µM, the TGI (SN12C renal) was > 100 µM and the TGI (SF-295 CNS) was > 100 µM. For the same compound, the TGI (DLD-1 colon) was > 100 µM, the TGI (SK-OV-3 ovarian) was > 100 µM and the TGI (DMS 273 small cell lung) was > 100 µM.

From PubChem BioAssay (NCI)
